pEC50: −log10 of the molar value. Where two headings read alike, the source gives them in different places.
Legend:
Assay type in all cases: cell-based
[1] = target: T1, M2 muscarinic receptor (Homo sapiens, UniProt P08172); assay: Functional mobilization of intracellular calcium (FLIPR) in CHO cells expressing M2; settings: for pEC50: CHO cells expressing M2, FLIPR calcium; for Emax: CHO; for M2 Activity: CHO cells expressing M2, FLIPR calcium assay
T1 construct: expressed in transfected cells; host or cells: CHO (M2-CHO)
T1 sequence (P08172 1-466): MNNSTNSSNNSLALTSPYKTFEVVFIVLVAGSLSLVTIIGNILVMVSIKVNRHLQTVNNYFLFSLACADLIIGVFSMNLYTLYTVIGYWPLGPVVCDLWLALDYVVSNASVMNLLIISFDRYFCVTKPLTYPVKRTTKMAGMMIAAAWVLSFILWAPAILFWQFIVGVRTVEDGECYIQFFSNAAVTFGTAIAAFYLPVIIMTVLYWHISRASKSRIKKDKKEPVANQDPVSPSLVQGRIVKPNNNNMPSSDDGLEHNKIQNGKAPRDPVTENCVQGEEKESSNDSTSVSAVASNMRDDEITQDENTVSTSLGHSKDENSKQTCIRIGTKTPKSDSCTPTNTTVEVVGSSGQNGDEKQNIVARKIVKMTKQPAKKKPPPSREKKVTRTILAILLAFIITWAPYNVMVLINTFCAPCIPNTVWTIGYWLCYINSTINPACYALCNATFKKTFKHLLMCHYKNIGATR
Summary of the method: (§1)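 Recombinant CHO cells loaded with Fluo-3 AM or Calcium 3 dye in pH 7.4 buffer containing 1 mM probenecid, with 0.5% final DMSO. For agonism, compound is added directly. For inhibition, it is preincubated 15 min, or co-applied, before carbachol at EC80. FLIPR fluorescence (ex 488, em 540 nm) is recorded for 60 s.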

[2] = target: T2, M4 muscarinic receptor (Homo sapiens, UniProt P08173); assay: Functional mobilization of intracellular calcium (FLIPR) in CHO cells expressing M4; settings: for pEC50: CHO cells expressing M4, FLIPR calcium; for Emax: CHO; for M4 Activity: CHO cells expressing M4, FLIPR calcium assay
T2 construct: expressed in transfected cells; host or cells: CHO (M4-CHO)
T2 sequence (P08173 1-479): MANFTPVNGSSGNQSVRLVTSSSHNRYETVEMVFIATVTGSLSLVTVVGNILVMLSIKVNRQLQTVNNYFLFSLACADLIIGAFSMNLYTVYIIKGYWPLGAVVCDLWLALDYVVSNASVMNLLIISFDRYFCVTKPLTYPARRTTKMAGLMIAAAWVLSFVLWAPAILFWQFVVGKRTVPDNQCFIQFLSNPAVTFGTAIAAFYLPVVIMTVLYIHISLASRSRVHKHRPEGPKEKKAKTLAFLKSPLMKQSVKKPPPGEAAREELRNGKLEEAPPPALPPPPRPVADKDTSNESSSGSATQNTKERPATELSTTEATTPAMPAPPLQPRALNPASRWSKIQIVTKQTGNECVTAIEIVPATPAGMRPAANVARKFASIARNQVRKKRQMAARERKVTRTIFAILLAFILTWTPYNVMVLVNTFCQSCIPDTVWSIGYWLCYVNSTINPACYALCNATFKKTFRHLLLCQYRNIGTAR
Summary of the method: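 Read-out: FLIPR fluorescence (ex 488, em 540 nm) over 60 s. Recombinant CHO lines are dye-loaded (Fluo-3 AM or Calcium 3) with 1 mM probenecid. For antagonist mode, compound is pre-incubated 15 min, or co-applied, then carbachol is added at 3× EC80 per subtype.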

[3] = target: T3, M3 muscarinic receptor (Homo sapiens, UniProt P20309); assay: Functional mobilization of intracellular calcium (FLIPR) in CHO cells expressing M3; settings: for pEC50: CHO cells expressing M3, FLIPR calcium; for Emax: CHO; for M3 Activity: CHO cells expressing M3, FLIPR calcium assay
T3 construct: expressed in transfected cells; host or cells: CHO (M3-CHO)
T3 sequence (P20309 whole entry): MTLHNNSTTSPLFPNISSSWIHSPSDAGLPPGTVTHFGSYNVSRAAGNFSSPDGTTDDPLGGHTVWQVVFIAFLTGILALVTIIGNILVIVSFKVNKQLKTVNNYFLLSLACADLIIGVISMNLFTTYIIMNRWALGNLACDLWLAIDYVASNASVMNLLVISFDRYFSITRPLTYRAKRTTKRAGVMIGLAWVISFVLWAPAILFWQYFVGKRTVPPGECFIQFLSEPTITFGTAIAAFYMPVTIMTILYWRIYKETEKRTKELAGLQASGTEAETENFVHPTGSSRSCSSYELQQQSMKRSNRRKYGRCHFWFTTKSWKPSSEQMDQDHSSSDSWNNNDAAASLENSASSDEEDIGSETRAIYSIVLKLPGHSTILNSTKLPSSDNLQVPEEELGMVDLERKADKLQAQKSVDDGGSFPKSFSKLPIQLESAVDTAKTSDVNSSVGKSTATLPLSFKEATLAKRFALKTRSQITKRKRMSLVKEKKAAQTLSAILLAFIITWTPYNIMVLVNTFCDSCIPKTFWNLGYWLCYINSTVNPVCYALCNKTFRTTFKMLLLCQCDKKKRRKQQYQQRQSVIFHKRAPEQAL
Summary of the method: as §1

[4] = target: T4, M1 muscarinic receptor (Homo sapiens, UniProt P11229); assay: Functional mobilization of intracellular calcium (FLIPR) in CHO cells expressing M1; settings: for pEC50: CHO cells expressing M1, FLIPR calcium; for Emax: CHO; for M1 Activity: CHO cells expressing M1, FLIPR calcium assay
T4 construct: expressed in transfected cells; host or cells: CHO (M1-CHO)
T4 sequence (P11229 1-460): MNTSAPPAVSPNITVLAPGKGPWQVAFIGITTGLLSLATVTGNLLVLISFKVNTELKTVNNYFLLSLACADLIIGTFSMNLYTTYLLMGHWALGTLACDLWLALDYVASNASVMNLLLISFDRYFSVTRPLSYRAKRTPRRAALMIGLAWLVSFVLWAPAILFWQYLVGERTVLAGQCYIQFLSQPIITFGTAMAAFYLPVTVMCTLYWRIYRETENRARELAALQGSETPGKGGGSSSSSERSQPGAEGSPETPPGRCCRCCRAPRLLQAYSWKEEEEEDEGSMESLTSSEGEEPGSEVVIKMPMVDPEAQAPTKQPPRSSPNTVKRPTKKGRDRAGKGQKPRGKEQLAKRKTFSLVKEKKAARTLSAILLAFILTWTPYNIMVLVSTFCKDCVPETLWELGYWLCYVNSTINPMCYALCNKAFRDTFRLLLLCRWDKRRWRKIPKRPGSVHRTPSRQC
Summary of the method: as §1

[5] = 100% = maximum response obtained with the Carbachol control, read-out: M2 Efficacy
[6] = 100% = maximum response obtained with the Carbachol control, read-out: M4 Efficacy
[7] = 100% = maximum response obtained with the Carbachol control, read-out: M3 Efficacy
[8] = 100% = maximum response obtained with the Carbachol control, read-out: M1 Efficacy
[9] = 100% efficacy = maximum response obtained with the Carbachol control

Structure (SMILES)	pEC50 [1]	Emax [1, 5]	pEC50 [2]	Emax [2, 6]	pEC50 [3]	Emax [3, 7]	pEC50 [4]	Emax [4, 8]	M2 Activity [1]	Emax [1, 9]	M4 Activity [2]	Emax [2, 9]	M3 Activity [3]	Emax [3, 9]	M1 Activity [4]	Emax [4, 9]
COCCC(=O)N[C@@H]1CCC2(CCN(CCC(C)(C)C)CC2)c2ccccc21 [compound 105]	< 5.30	< 25%	> 5.70	25 to 100%	< 5.30	< 25%	5.30 to 5.70	< 25%								
CC(C)(C)OC(=O)N1CCC2(CC1)C[C@H](NC(=O)N1CCCC1)c1ccccc12 [compound 276]									+ (activity was measured to be greater than 5.0 μM)	< 25%	+ (activity was measured to be greater than 5.0 μM)	< 25%	+ (activity was measured to be greater than 5.0 μM)	< 25%	+ (activity was measured to be greater than 5.0 μM)	< 25%
CCC(=O)N[C@H]1CC2(CCN(C(=O)OC(C)(C)C)CC2)c2ccccc21 [compound 271]									+ (activity was measured to be greater than 5.0 μM)	< 25%	+ (activity was measured to be greater than 5.0 μM)	< 25%	+ (activity was measured to be greater than 5.0 μM)	< 25%	+ (activity was measured to be greater than 5.0 μM)	< 25%
CCC(CC)N1CCC2(CC[C@H](NC(C)=O)c3ccccc32)CC1 [Compound No. 61, (S)N-(1′-(pentan-3-yl)-3,4-dihydro-2H-spiro[naphthalene-1,4′-piperidine]-4-yl)acetamide]	< 5.30	< 25%	< 5.30	25 to 100%	< 5.30	< 25%	< 5.30	25 to 100%								
CCC(=O)N[C@H]1CC2(CCN(CCC(C)C)CC2)c2ccccc21 [compound 231]									+ (activity was measured to be greater than 5.0 μM)	< 25%	+++ (activity was measured to be less than 2.0 μM)	< 25%	+ (activity was measured to be greater than 5.0 μM)	< 25%	+ (activity was measured to be greater than 5.0 μM)	< 25%
CN1CCC2(CCCc3ccccc32)CC1 [compound 232]									+ (activity was measured to be greater than 5.0 μM)	< 25%	+ (activity was measured to be greater than 5.0 μM)	< 25%	+ (activity was measured to be greater than 5.0 μM)	< 25%	+ (activity was measured to be greater than 5.0 μM)	< 25%
C[C@H](C(=O)N[C@H]1CCC2(CCN(CCC(C)(C)C)CC2)c2ccccc21)N1CCCCC1=O [compound 38]	< 5.30	< 25%	> 5.70	25 to 100%	< 5.30	< 25%	> 5.70	25 to 100%								
CC[C@@H](C)CN1CCC2(CC[C@H](NC(C)=O)c3ccccc32)CC1 [compound 56]	> 5.70	25 to 100%	> 5.70	25 to 100%	< 5.30	< 25%	> 5.70	25 to 100%								
CC/C=C\CCCCCCN1CCC2(CC1)C[C@H](NC(C)=O)c1ccccc12 [compound 248]									+ (activity was measured to be greater than 5.0 μM)	< 25%	+ (activity was measured to be greater than 5.0 μM)	25 to 100%	+ (activity was measured to be greater than 5.0 μM)	< 25%	++ (activity was measured to be from 2.0 μM to 5.0 μM)	25 to 100%
CC(=O)N(C)[C@H]1CCC2(CCN(CCC(C)C)CC2)c2ccccc21 [compound 184]	< 5.30	< 25%	> 5.70	25 to 100%	< 5.30	< 25%	> 5.70	25 to 100%								

Source: patent publication US8003660B2, “Modulators of muscarinic receptors” (Vertex Pharmaceuticals Incorporated, priority 2006, dated 2011)
